In PMC6081452, “Downstream Products are Potent Inhibitors of the Heparan Sulfate 2-O-Sulfotransferase” (Scientific Reports, 2018):

Molecular target: T1, non-glyc-HS2ST WT (Gallus gallus, UniProt Q76KB1)
T1 construct: made in house; host or cells: E. coli Origami B (DE3)
T1 sequence (Q76KB1 69-356 limits assumed): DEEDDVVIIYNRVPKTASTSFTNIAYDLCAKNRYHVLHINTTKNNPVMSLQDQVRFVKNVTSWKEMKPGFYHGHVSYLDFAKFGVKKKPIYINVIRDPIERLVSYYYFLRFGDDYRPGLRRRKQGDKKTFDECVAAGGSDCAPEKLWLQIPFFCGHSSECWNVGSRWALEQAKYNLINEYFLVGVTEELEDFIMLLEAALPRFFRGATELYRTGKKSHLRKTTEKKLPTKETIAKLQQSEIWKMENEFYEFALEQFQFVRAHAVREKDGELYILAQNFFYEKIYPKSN
Assay: Inhibition assay of the reaction between HS2ST and completely de-O-sulfated N-sulfated heparin ([35S]PAPS)
Assay type: biochemical, chicken
Conditions: for IC50: p-nitrophenol-terminated hexasaccharides, substrate CDNS heparin 1 µg, [35S]PAPS, 37 °C, 1 h, n = 2 or 3
Experimental: Inhibition assays were thus performed with non-glyc-HS2ST and all compounds except for 1, the enzymatic substrate. […] Compound 5 appeared to inhibit at least as well as the product of the reaction (2); however, the IC50 was not reached even at the maximum substrate concentration (1 mM) for either 2 or 5. The addition of a single sulfate moiety enhanced the potency of the glycan as an inhibitor by ~10-fold (compare 3 and 4). The presence of both 2- and 3-O-sulfate moieties in the hexasaccharide (4) enhanced its inhibitory potential by approximately 100-fold relative to 5. These in vitro inhibition assays indicate that downstream products of the HS biosynthetic pathway could interfere with HS2ST catalysis in vivo.
The same glycan sequences were synthesized[62] for the inhibition assay as were used for the binding studies (Supplementary Table 1), except these terminated in p-nitrophenol rather than the PEG4-Biotin linker. The reaction mixture contained Tris pH 7.5 50 mM, 0.3 µg non-glyc-HS2ST WT, 0.08 nmol ^35S-labeled 3′-phosphoadenosine 5′-phosphosulfate ([^35S] PAPS) (3 × 10^4 cpm), completely de-O-sulfated N-sulfated heparin (CDNS heparin) 1 µg, and either compound 2, 3, 4 (0, 1, 2, 4, 8, and 16 µg) or 5 (2, 20, 60, and 160 µg) in a total volume of 0.1 ml. After incubation at 37 °C for 1 h, the reaction was quenched by adding 1 mL of 0.01% Triton X-100 buffer at pH 5.0 containing 150 mM NaCl, 50 mM NaOAc, 3 M urea and 1 mM ethylenediaminetetraacetic acid (EDTA). The samples were loaded on a small DEAE column (200 µl in size). The column was then washed five times with the same buffer, each time 1 ml. The column was further washed five times with 0.25 M NaCl in 0.001% Triton X-100 buffer each time 1 ml. The column was eluted with 1 ml of 1 M NaCl in 0.001% Triton X-100 buffer. The ^35S cpm of the eluted samples were tested the by a scintillation counter.

| Enhancement of inhibitory potential relative to 5 (4 relative to 5) | Enhancement of inhibitory potency by addition of a single sulfate moiety (compare 3 and 4) (4 versus 3) | IC50 [µM] | Substance |
| --- | --- | --- | --- |
| approximately 100 fold | ~ 10 fold |  | GlcNS6S-GlcA-GlcNS3S6S-IdoA2S-GlcNS6S-GlcA~ [Compound 4] |
|  |  | > 1000 | GlcNS6S-GlcA-GlcNS6S-GlcA-GlcNS6S-GlcA~ [Compound 5] |
|  |  | > 1000 | GlcNS-GlcA-GlcNS-IdoA2S-GlcNS-GlcA~ [Compound 2] |
